Target: T1, HDAC1 (Homo sapiens, UniProt Q13547)
T1 construct: purchased Huntingtree Associates Ltd
Assay: Epigenase HDAC Activity/Inhibition Direct Assay Kit (Colorimetric)
Type: biochemical
Conditions: FIG. 20

T1 sequence (Q13547 whole entry): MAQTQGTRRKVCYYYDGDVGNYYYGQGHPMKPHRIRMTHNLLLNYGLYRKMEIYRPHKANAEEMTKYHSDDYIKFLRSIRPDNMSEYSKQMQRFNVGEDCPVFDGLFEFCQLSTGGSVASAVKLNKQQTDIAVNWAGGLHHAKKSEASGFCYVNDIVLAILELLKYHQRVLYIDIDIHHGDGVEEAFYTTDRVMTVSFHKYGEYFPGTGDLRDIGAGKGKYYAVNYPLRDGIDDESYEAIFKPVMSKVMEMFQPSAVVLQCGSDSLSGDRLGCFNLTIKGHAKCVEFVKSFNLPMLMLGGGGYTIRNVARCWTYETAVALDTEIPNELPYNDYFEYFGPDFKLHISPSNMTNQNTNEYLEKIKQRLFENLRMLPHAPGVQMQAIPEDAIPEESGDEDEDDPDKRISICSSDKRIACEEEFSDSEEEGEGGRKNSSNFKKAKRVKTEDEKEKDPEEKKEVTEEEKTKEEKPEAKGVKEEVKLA

CC(=O)C=O [MGO, Methylglyoxal]
HDAC inhibition: dose response inhibition

Reference: patent US20240293472A1, “Bee Product Extracts, Methods of Production, and Uses Thereof” (Quantum Technologies Limited, priority 2020, published 2024)
